This passage reports IC50 results from the Kinase Knowledgebase extract (Sharma et al. 2016).

Molecules are shown by their SMILES. pIC50: −log10 of the molar value.

Experiment [1] addresses PIK3CA (human) (UniProt P42336). Nature of the experiment: Inhibition of PIK3CA Kinase Activity.
Experiment [2] concerns the target PIK3CA (human), P42336 [Antiproliferation of PI3K Mutated BT20 Cells]. Kind of experiment: Cell-Based Assay.

Sequence of PIK3CA (human), P42336 [Antiproliferation of PI3K Mutated BT20 Cells] (P42336 whole entry, looked up, change not shown): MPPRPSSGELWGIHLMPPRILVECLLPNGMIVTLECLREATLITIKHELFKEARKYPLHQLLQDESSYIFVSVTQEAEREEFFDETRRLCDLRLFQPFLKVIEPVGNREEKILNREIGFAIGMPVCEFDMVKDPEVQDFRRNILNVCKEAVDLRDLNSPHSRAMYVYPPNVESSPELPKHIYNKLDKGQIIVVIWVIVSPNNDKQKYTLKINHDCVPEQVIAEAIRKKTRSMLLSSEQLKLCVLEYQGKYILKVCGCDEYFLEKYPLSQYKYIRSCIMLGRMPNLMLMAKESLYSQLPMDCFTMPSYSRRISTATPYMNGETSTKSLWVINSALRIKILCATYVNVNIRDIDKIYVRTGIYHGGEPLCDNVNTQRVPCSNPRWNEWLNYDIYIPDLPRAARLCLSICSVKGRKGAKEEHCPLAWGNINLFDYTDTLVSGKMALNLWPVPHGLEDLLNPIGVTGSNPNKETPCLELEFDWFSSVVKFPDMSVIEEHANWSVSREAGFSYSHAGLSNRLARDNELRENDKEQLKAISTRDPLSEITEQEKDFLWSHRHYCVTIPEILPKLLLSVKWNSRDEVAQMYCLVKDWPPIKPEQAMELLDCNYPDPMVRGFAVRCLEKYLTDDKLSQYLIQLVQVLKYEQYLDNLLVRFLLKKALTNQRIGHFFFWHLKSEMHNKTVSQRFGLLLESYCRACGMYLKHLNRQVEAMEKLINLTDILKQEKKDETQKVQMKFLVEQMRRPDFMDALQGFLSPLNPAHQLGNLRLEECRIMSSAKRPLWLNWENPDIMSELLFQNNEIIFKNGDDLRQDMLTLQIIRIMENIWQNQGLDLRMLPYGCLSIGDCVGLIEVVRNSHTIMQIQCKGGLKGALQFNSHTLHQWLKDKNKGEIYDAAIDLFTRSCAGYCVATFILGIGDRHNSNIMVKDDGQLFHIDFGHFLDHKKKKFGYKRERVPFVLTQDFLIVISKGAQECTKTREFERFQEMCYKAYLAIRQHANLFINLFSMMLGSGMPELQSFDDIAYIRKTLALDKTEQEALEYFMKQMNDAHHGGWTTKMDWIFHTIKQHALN
Sequence of PIK3CA (human) (P42336 whole entry, looked up): as the sequence (P42336 whole entry, looked up, change not shown) above

As a reminder, the pIC50 is the IC50 on a negative log10 scale, so that one unit is a factor of ten. Higher therefore signals a small IC50. Regarding `CNc1nc(C)c2cc(Br)c(=O)n(CC3CCOC3)c2n1` (stereo not drawn), the pIC50 in experiment [1] is 7.32; in experiment [2], 6.23.

Turning to `Cc1nc(N)nc2c1cc(Br)c(=O)n2CC(C)(C)O`, the pIC50 in experiment [1] is 6.17; in experiment [2], 5.63.

For the compound `Cc1nc(N)nc2c1cc(-c1cnc3[nH]ccc3c1)c(=O)n2C1CCCC1`, the pIC50 in experiment [1] was 9.32; in experiment [2], 8.56.

Consider `CNc1nc(C)c2cc(-c3c[nH]c(C)n3)c(=O)n(C3CCCC3)c2n1`, for which the pIC50 in experiment [1] was 7.17; in experiment [2], 6.74.

On to `COc1ccc(-c2cc3c(C)nc(N)nc3n([C@@H]3CC[C@H](O)C3)c2=O)cn1`, for which the pIC50 is 7.96 in experiment [1] and 7.08 in experiment [2].

On to `Cc1nc(N)nc2c1cc(-c1cnc(O)nc1)c(=O)n2C(C)C`, for which the negative-log IC50 (pIC50) in experiment [1] is 6.52; in experiment [2], 5.60.

On to `Cc1nc(N)nc2c1cc(-c1cnc3[nH]ccc3c1)c(=O)n2C1CCC1`, for which the results for the negative-log IC50 (pIC50) in experiment [1] and in experiment [2] were 8.70 and 7.92, respectively.

Consider `Cc1nc(N)nc2c1cc(-c1cnc3[nH]ccc3c1)c(=O)n2C1CCOCC1`, for which the negative-log IC50 (pIC50) was 8.43 in experiment [1] and 7.82 in experiment [2].

`Cc1nc(N)nc2c1cc(-c1cc[nH]n1)c(=O)n2[C@H]1CC[C@H](O)CC1`: the pIC50 in experiment [1] is 8.00; in experiment [2], 7.60.

For `COc1ccc(-c2cc3c(C)nc(NCC(C)(C)O)nc3n(C3CCCC3)c2=O)cn1`, the pIC50 in experiment [1] was 6.08; in experiment [2] it was 5.24.

Take `Cc1nc(N)nc2c1cc(Br)c(=O)n2CC1CCOC1` (stereo not drawn): the negative-log IC50 (pIC50) in experiment [1] was 7.03; in experiment [2], 5.99.

Turning to `Cc1nc(N)nc2c1cc(-c1cn[nH]c1)c(=O)n2[C@H]1CC[C@H](OCCO)CC1`, the negative-log IC50 (pIC50) in experiment [1] is 8.12; in experiment [2], 7.47.

As for `Cc1nc(N)nc2c1cc(-c1cn[nH]c1)c(=O)n2C1CN(C(=O)OC(C)(C)C)C1`, the pIC50 in experiment [1] is 6.92; in experiment [2], 7.38.

Regarding `COc1ccc(-c2cc3c(C)nc(N)nc3n(C(C)C)c2=O)cn1`, the negative logarithm of the IC50 (pIC50) in experiment [1] was 7.96; in experiment [2], 7.19.

As for `CO[C@H]1CC[C@H](n2c(=O)c(-c3ccc(N(C)C)nc3)cc3c(C)nc(N)nc32)CC1`, the pIC50 in experiment [1] is 8.21; in experiment [2] it was 8.00.

Turning to `Cc1nc(N)nc2c1cc(C(=O)Nc1ccn[nH]1)c(=O)n2[C@H]1CC[C@H](O)CC1`, the negative logarithm of the IC50 (pIC50) in experiment [1] was 9.23; in experiment [2] it was 7.55.

`Cc1nc(N)nc2c1cc(-c1cnc(N)cn1)c(=O)n2C1CCCC1`: the negative-log IC50 (pIC50) in experiment [1] was 7.82; in experiment [2] it was 7.75.

In the case of `COc1ccc(-c2cc3c(C)nc(N)nc3n(CC3CCOCC3)c2=O)cn1`, the pIC50 was 7.82 in experiment [1] and 7.05 in experiment [2].

As to `Cc1nc(N)nc2c1cc(-c1cccc(Cl)n1)c(=O)n2C1CCCC1`, the figures for the pIC50 in experiment [1] and in experiment [2] were 6.77 and 5.46, respectively.

Take `Cc1nc(N)nc2c1cc(-c1ccc(F)cc1)c(=O)n2CC(C)(C)O`: the pIC50 in experiment [1] was 5.47; in experiment [2] it was 5.00.

With `Cc1nc(N)nc2c1cc(-c1cccc(CO)c1)c(=O)n2C1CCOCC1`, the pIC50 in experiment [1] was 8.41; in experiment [2], 7.48.

For the compound `COc1ccc(-c2cc3c(C)nc(N)nc3n([C@H]3C[C@H](OCCO)C3)c2=O)cn1`, the values for the negative logarithm of the IC50 (pIC50) in experiment [1] and in experiment [2] were 7.99 and 7.29, respectively.

Consider `CNc1nc(C)c2cc(C(N)=O)c(=O)n(C3CCCC3)c2n1`, for which the pIC50 is 7.17 in experiment [1] and 6.19 in experiment [2].

For `COc1ccc(-c2cc3c(C)nc(N)nc3n(CC(C)(C)F)c2=O)cn1`, the pIC50 in experiment [1] is 7.52; in experiment [2] it was 6.36.

With `COc1ccc(-c2cc3c(C)nc(N)nc3n(CCC3CC3)c2=O)cn1`, the negative logarithm of the IC50 (pIC50) in experiment [1] was 7.96; in experiment [2], 7.03.

Turning to `COc1ncc(-c2cc3c(C)nc(N)nc3n([C@H]3C[C@H](OCCO)C3)c2=O)cc1F`, the figures for the pIC50 in experiment [1] and in experiment [2] were 8.51 and 7.84, respectively.

Regarding `Cc1nc(N)nc2c1cc(-c1cccc(CO)c1)c(=O)n2C1CCCC1`, the negative-log IC50 (pIC50) is 8.51 in experiment [1] and 7.69 in experiment [2].

Take `Cc1nc(N)nc2c1cc(-c1cn[nH]c1)c(=O)n2CC(F)(F)F`: the pIC50 in experiment [1] is 6.73; in experiment [2] it was 6.63.

With `COc1ccc(-c2cc3c(C)nc(N)nc3n([C@H]3CC[C@H](OC)CC3)c2=O)cn1`, the pIC50 in experiment [1] is 8.41; in experiment [2] it was 8.13.

In the case of `COc1ccc(-c2cc3c(C)nc(NCC(F)F)nc3n([C@H]3CC[C@H](O)CC3)c2=O)cn1`, the pIC50 was 7.92 in experiment [1] and 7.33 in experiment [2].

For `Cc1nc(N)nc2c1cc(-c1ccc(N3CCCC3)nc1)c(=O)n2C1CCCC1`, the negative logarithm of the IC50 (pIC50) in experiment [1] is 7.06; in experiment [2], 7.58.

For `Cc1nc(N)nc2c1cc(-c1cnc3[nH]ccc3c1)c(=O)n2[C@@H]1CC[C@H](O)C1`, the pIC50 in experiment [1] is 8.92; in experiment [2], 7.69.

Regarding `Cc1nc(N)nc2c1cc(Br)c(=O)n2C1CCC(=O)CC1`, the pIC50 in experiment [1] is 6.96; in experiment [2], 6.68.

With `CNc1nc(C)c2cc(-c3cnn(C)c3)c(=O)n(C3CCCC3)c2n1`, the pIC50 in experiment [1] is 7.41; in experiment [2], 6.50.
